23 molecules from PubChem BioAssay (NCI) can be followed below.

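Step 1: Grow cells in 96-well plates. Step 2: Expose to compound for 48 hours at 5 concentrations. Step 3: Interpolate endpoints linearly; if unreached, use highest concentration. Here, GI50 denotes the concentration required for 50% inhibition of growth. TGI denotes the concentration required for complete inhibition of growth.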

Test systems include LOX IMVI melanoma; SW-620 colon; IGROV1 ovarian; NCI-H23 lung; SK-MEL-28 melanoma; K-562 leukemia; MCF7 breast; OVCAR-3 ovarian; T-47D breast; PC-3 prostate.
Test in all cases: DTP human tumour cell line panel, 48 h

As to `CCOC(=O)CN(CC)C(=O)NC12CC3CC(CC(C3)C1)C2`, the TGI in the assay with LOX IMVI melanoma is 409 µM; in the assay with SW-620 colon, over 750 µM; in the assay on IGROV1 ovarian, over 750 µM; with NCI-H23 lung, 560 µM; with SK-MEL-28 melanoma, over 750 µM; with K-562 leukemia, 683 µM. The total growth inhibition concentration (TGI) in the assay on MCF7 breast is 461 µM; with OVCAR-3 ovarian, 512 µM.

As for `CCOC(=O)c1c(NS(=O)(=O)c2ccccc2)sc2c1CCCC2`, the total growth inhibition concentration (TGI) with IGROV1 ovarian, in the assay on NCI-H23 lung, in the assay on T-47D breast, in the assay with PC-3 prostate, in the assay with K-562 leukemia and in the assay with MCF7 breast was over 100 µM each time. This molecule also registered a TGI in the assay with OVCAR-3 ovarian of 82.3 µM.

Regarding `O=C(OC[C@H]1C[C@H]2C(=O)OCCC[C@H]2O1)c1ccccc1`, the TGI in the assay with SW-620 colon, in the assay on IGROV1 ovarian, with NCI-H23 lung, with T-47D breast, in the assay with PC-3 prostate and in the assay with SK-MEL-28 melanoma was over 100 µM in each case. Moreover, the TGI with K-562 leukemia, with MCF7 breast and in the assay on OVCAR-3 ovarian was over 100 µM in each case.

With `COc1ccc2nc(-c3ccc(N)cc3)sc2c1`, the TGI with SW-620 colon, in the assay on IGROV1 ovarian, with NCI-H23 lung, in the assay with PC-3 prostate, with SK-MEL-28 melanoma and with K-562 leukemia was over 100 µM each time. Moreover, the TGI in the assay with MCF7 breast and in the assay with OVCAR-3 ovarian was over 100 µM throughout.

On to `O=C1C=C2SC3C[C@@]24CC1(O)[N+]1=c2c4c(c(O)c4c2=C(C=N4)CC1)N3`, for which the total growth inhibition concentration (TGI) with LOX IMVI melanoma amounted to 1.55 µM; in the assay on SW-620 colon it was 0.809 µM; with IGROV1 ovarian, 2.98 µM; in the assay with NCI-H23 lung it was 2.71 µM; with SK-MEL-28 melanoma, 3.03 µM; in the assay on K-562 leukemia it was 2.72 µM. Also, the values for the TGI in the assay with MCF7 breast and in the assay on OVCAR-3 ovarian were 0.972 µM and 0.515 µM, respectively.

Take `Cc1ccc(-c2ccc3c(c2)Sc2ccccc2O3)n1C`: the concentration for total growth inhibition (TGI) in the assay with LOX IMVI melanoma was over 100 µM; in the assay with SW-620 colon it was over 100 µM; in the assay on IGROV1 ovarian it was 1.2 µM; in the assay on NCI-H23 lung, over 100 µM; in the assay on T-47D breast, over 100 µM; in the assay on SK-MEL-28 melanoma, over 100 µM. The TGI with K-562 leukemia and in the assay on OVCAR-3 ovarian was over 100 µM in each case.

On to `COC(=O)c1sc2c(c1C(=O)OC)C(=Nc1ccc(OC)cc1)SC2=Nc1ccc(OC)cc1`, for which the TGI amounted to 0.449 µM in the assay on LOX IMVI melanoma; 0.7 µM with SW-620 colon; 2.24 µM in the assay with IGROV1 ovarian; 3.12 µM with NCI-H23 lung; 1.04 µM in the assay on PC-3 prostate; 2.85 µM in the assay with SK-MEL-28 melanoma. Moreover, the figures for the concentration for total growth inhibition (TGI) in the assay on MCF7 breast and in the assay on OVCAR-3 ovarian were 2.47 µM and 1.32 µM, respectively.

In the case of `CCOc1c2c(cc3c1C(=O)c1c(OC)cccc1C3=O)C=C(OC)CC2`, the total growth inhibition concentration (TGI) in the assay on LOX IMVI melanoma, with SW-620 colon, in the assay with IGROV1 ovarian, in the assay on NCI-H23 lung, with PC-3 prostate and with SK-MEL-28 melanoma was over 25 µM throughout. The total growth inhibition concentration (TGI) with K-562 leukemia, in the assay on MCF7 breast and in the assay on OVCAR-3 ovarian was over 25 µM throughout.

Consider `C=CC[PH+](c1ccccc1)c1ccccc1.C=CC[PH+](c1ccccc1)c1ccccc1.[Pt+2].[S-]c1nc2ccccc2[nH]1.[S-]c1nc2ccccc2[nH]1`, for which the GI50 with PC-3 prostate was 1.62 µM; with K-562 leukemia, 0.62 µM; in the assay on MCF7 breast, 2.57 µM; in the assay with OVCAR-3 ovarian it was 1.9 µM. Moreover, the TGI in the assay with PC-3 prostate was 5.58 µM; with K-562 leukemia, over 100 µM; in the assay with MCF7 breast, 9.91 µM; in the assay on OVCAR-3 ovarian it was 5.16 µM.

Consider `CN(C)CCCn1c(-c2ccc(Br)cc2)csc1=Nc1ccccc1`, for which the TGI is 27.8 µM in the assay with NCI-H23 lung; 25.2 µM in the assay on PC-3 prostate; 53.3 µM in the assay on SK-MEL-28 melanoma; 47.8 µM in the assay with K-562 leukemia; 54 µM in the assay on MCF7 breast; 23.3 µM in the assay with OVCAR-3 ovarian.

In the case of `Cc1c(CCCl)c(Cl)n2c(nc3ccccc32)c1C#N`, the TGI in the assay with LOX IMVI melanoma worked out at 0.878 µM; in the assay with SW-620 colon, 0.801 µM; in the assay on IGROV1 ovarian it was 3.36 µM; with NCI-H23 lung, 2.37 µM; in the assay with PC-3 prostate, 2.4 µM; in the assay with SK-MEL-28 melanoma, 4.97 µM. The TGI stood at 3.34 µM with K-562 leukemia, 5.28 µM in the assay with MCF7 breast and 2.82 µM in the assay on OVCAR-3 ovarian.

Turning to `Cc1nc2nnc(CCCCCCCCc3nnc4nc(C)[nH]n34)n2[nH]1`, the TGI in the assay with LOX IMVI melanoma, in the assay with SW-620 colon, with IGROV1 ovarian, with NCI-H23 lung, in the assay with PC-3 prostate and with SK-MEL-28 melanoma was over 100 µM in each case. In addition, the TGI in the assay on K-562 leukemia, in the assay with MCF7 breast and in the assay on OVCAR-3 ovarian was over 100 µM in each case.

In the case of `CCCOC(=O)CCC(NC(=O)c1ccc(Nc2nc3ccccc3nc2-c2cccs2)cc1)C(=O)OCCC` (configuration not stated), the TGI in the assay with LOX IMVI melanoma, with SW-620 colon, in the assay on IGROV1 ovarian, with NCI-H23 lung, with SK-MEL-28 melanoma and in the assay with K-562 leukemia was over 100 µM in each case. In the assay on OVCAR-3 ovarian, this molecule registered a concentration for total growth inhibition (TGI) of over 100 µM.

Turning to `CCc1nnc2sc(-c3ccc(-c4ccccc4[N+](=O)[O-])o3)nn12`, the TGI with LOX IMVI melanoma, in the assay with SW-620 colon, with IGROV1 ovarian, in the assay on NCI-H23 lung, with T-47D breast and in the assay with PC-3 prostate was over 100 µM throughout. Besides, the TGI with K-562 leukemia, in the assay with MCF7 breast and in the assay on OVCAR-3 ovarian was over 100 µM each time.

Regarding `Cc1cccc(NC(=S)NNC(=O)c2cc(-c3ccccc3)nc3ccccc23)c1`, the TGI in the assay on SW-620 colon is over 100 µM; in the assay with IGROV1 ovarian, over 100 µM; in the assay with NCI-H23 lung, 84.8 µM; in the assay on T-47D breast, over 100 µM; in the assay on PC-3 prostate, 83.3 µM; in the assay with SK-MEL-28 melanoma, over 100 µM. The total growth inhibition concentration (TGI) in the assay with K-562 leukemia is over 100 µM; in the assay with MCF7 breast, 57.2 µM; in the assay with OVCAR-3 ovarian it was 66.5 µM.

As for `CCCCCCCC(=O)NC(C)(C)C(=O)NCC(=O)NC(CC(C)C)C(=O)NC(C)(C)C(=O)NCC(=O)NCC(=O)NC(CC(C)C)C(=O)NC(C)(C)C(=O)NCC(=O)NC(C(=O)NC(CO)CC(C)C)C(C)CC` (configuration not stated), the TGI turned out to be 6.88 µM in the assay with LOX IMVI melanoma; 9.28 µM in the assay with SW-620 colon; 7.17 µM in the assay with IGROV1 ovarian; 7.49 µM in the assay on NCI-H23 lung; 7.23 µM in the assay with T-47D breast; 7.08 µM in the assay on PC-3 prostate. The figures for the TGI with SK-MEL-28 melanoma, in the assay on K-562 leukemia and in the assay on OVCAR-3 ovarian were 7.32 µM, 9.11 µM and 6.36 µM, respectively.

`O=C(Cn1c(=O)oc2ccccc21)N(c1ccccc1)c1ccccc1`: the TGI in the assay with LOX IMVI melanoma, in the assay with SW-620 colon, in the assay with IGROV1 ovarian, in the assay on NCI-H23 lung, in the assay on PC-3 prostate and in the assay with SK-MEL-28 melanoma was over 100 µM throughout. Also, the total growth inhibition concentration (TGI) in the assay with K-562 leukemia, in the assay on MCF7 breast and in the assay with OVCAR-3 ovarian was over 100 µM in each case.

Consider `CCC(C)C(NC(=O)c1cccc2c(=O)c3ccccc3[nH]c12)C(=O)O` (configuration not stated), for which the TGI in the assay on LOX IMVI melanoma, in the assay on SW-620 colon, in the assay with IGROV1 ovarian, in the assay with NCI-H23 lung, in the assay with PC-3 prostate and in the assay with SK-MEL-28 melanoma was over 100 µM in each case. The concentration for total growth inhibition (TGI) in the assay on K-562 leukemia, with MCF7 breast and in the assay with OVCAR-3 ovarian was over 100 µM in each case.

Regarding `CC(=O)OC1CCC2(C)C(CCC3C2CCC2(C)C(c4ccc(=O)oc4)C(OC(C)=O)CC32O)C1` (configuration not stated), the concentration for total growth inhibition (TGI) in the assay on LOX IMVI melanoma worked out at 0.38 µM; in the assay on SW-620 colon, 0.0593 µM; in the assay on IGROV1 ovarian, 0.169 µM; in the assay on NCI-H23 lung, 0.0296 µM; in the assay with SK-MEL-28 melanoma, 0.497 µM; in the assay on K-562 leukemia, 0.141 µM. Further, the TGI in the assay with MCF7 breast was 0.229 µM; with OVCAR-3 ovarian, 0.0235 µM.

Turning to `O=S(c1ccc(O)cc1)c1ccc(O)cc1`, the total growth inhibition concentration (TGI) in the assay with LOX IMVI melanoma, with SW-620 colon, in the assay on IGROV1 ovarian, in the assay with NCI-H23 lung, with SK-MEL-28 melanoma and in the assay on K-562 leukemia was over 100 µM in each case. In addition, in the assay on OVCAR-3 ovarian, the concentration for total growth inhibition (TGI) is over 100 µM.

Take `CC/C(CC(=O)CCC(=O)Nc1ccc(C)c(C)c1)=N\NC(=O)c1cc2ccccc2cc1O`: the TGI in the assay with LOX IMVI melanoma was 81.1 µM; with SW-620 colon, over 100 µM; with IGROV1 ovarian, 57.5 µM; in the assay with NCI-H23 lung, 89.4 µM; with SK-MEL-28 melanoma, 46.9 µM; with K-562 leukemia, over 100 µM. The same molecule had a TGI with OVCAR-3 ovarian of over 100 µM.

Take `Cc1cc2nc3c(N)nn(CCCN(C)C)c3nc2cc1C`: the total growth inhibition concentration (TGI) in the assay with SW-620 colon, with NCI-H23 lung, in the assay with T-47D breast, in the assay on PC-3 prostate, in the assay with SK-MEL-28 melanoma and with MCF7 breast was over 100 µM throughout. In addition, in the assay on OVCAR-3 ovarian, the total growth inhibition concentration (TGI) is over 100 µM.

On to `O=C1OCOC2(CCCC2)C1c1ccccc1` (configuration not stated), for which the TGI in the assay with LOX IMVI melanoma, with SW-620 colon, with IGROV1 ovarian, in the assay on NCI-H23 lung, in the assay on T-47D breast and with PC-3 prostate was over 100 µM each time. Moreover, the total growth inhibition concentration (TGI) in the assay with SK-MEL-28 melanoma, in the assay on K-562 leukemia and with OVCAR-3 ovarian was over 100 µM in each case.
